The values below come from publication PMC5218480 (PLoS ONE, 2017).

The test system of this assay is MV-4-11 cells. The assay is described as follows: Gene expression microarray analysis (Affymetrix PrimeView) and GSEA. The assay is classed as cell-based, human. Further details: RFU PODN (11730768_x_at) / Fold change /veh PODN (11730768_x_at) / RFU LINC00158 (11744669_a_at) / Fold change /veh LINC00158 (11744669_a_at) / RFU DUSP10 (11751237_a_at) / Fold change /veh DUSP10 (11751237_a_at) / RFU ID3 (11757404_x_at) / Fold change /veh ID3 (11757404_x_at) / RFU PLEKHG5 (11737974_s_at) / Fold change /veh PLEKHG5 (11737974_s_at) / RFU LRRC4B (11730491_at) / Fold change /veh LRRC4B (11730491_at) / RFU GIMAP4 (11747438_a_at) / Fold change /veh GIMAP4 (11747438_a_at) / RFU KRT8 (11758183_x_at) / Fold change /veh KRT8 (11758183_x_at) / RFU CNN1 (11734310_a_at) / Fold change /veh CNN1 (11734310_a_at) / RFU VPS37D (11726825_at) / Fold change /veh VPS37D (11726825_at) / RFU C10orf10 (11716522_x_at) / Fold change /veh C10orf10 (11716522_x_at) / RFU KIR2DL2 /// KIR2DL4 /// KIR2DL5A /// KIR2DL5B /// KIR2DS1 /// KIR2DS2 /// KIR2DS3 /// KIR2DS4 /// KIR3DL3 /// KIR3DL3 /// KIR3DS1 (11738374_at) / Fold change /veh KIR2DL2 /// KIR2DL4 /// KIR2DL5A /// KIR2DL5B /// KIR2DS1 /// KIR2DS2 /// KIR2DS3 /// KIR2DS4 /// KIR3DL3 /// KIR3DL3 /// KIR3DS1 (11738374_at) / RFU C1QL1 (11718748_at) / Fold change /veh C1QL1 (11718748_at) / RFU TMPRSS4 (11747572_a_at) / Fold change /veh TMPRSS4 (11747572_a_at) / RFU HAMP (11756126_x_at) / Fold change /veh HAMP (11756126_x_at) / RFU RNFT2 (11725882_a_at) / Fold change /veh RNFT2 (11725882_a_at) / RFU NR4A2 (11747474_a_at) / Fold change /veh NR4A2 (11747474_a_at) / RFU ABCC12 (11746883_a_at) / Fold change /veh ABCC12 (11746883_a_at) / RFU TMEM136 (11760407_x_at) / Fold change /veh TMEM136 (11760407_x_at) / RFU CLDN22 /// WWC2 (11732394_at) / Fold change /veh CLDN22 /// WWC2 (11732394_at) / RFU HLA-DPB1 (11760878_x_at) / Fold change /veh HLA-DPB1 (11760878_x_at) / RFU SPINT1 (11716480_a_at) / Fold change /veh SPINT1 (11716480_a_at) / RFU GAP43 (11754022_s_at) / Fold change /veh GAP43 (11754022_s_at) / RFU A4GNT (11735810_at) / Fold change /veh A4GNT (11735810_at) / RFU PRB3 (11715151_x_at) / Fold change /veh PRB3 (11715151_x_at) / RFU TUBB4B (11761932_at) / Fold change /veh TUBB4B (11761932_at) / RFU CAPN14 (11732068_a_at) / Fold change /veh CAPN14 (11732068_a_at) / RFU TMCC2 (11721928_a_at) / Fold change /veh TMCC2 (11721928_a_at) / RFU IRGQ (11745062_a_at) / Fold change /veh IRGQ (11745062_a_at) / RFU FAM174B (11720279_a_at) / Fold change /veh FAM174B (11720279_a_at) / RFU TMPRSS4 (11748680_a_at) / Fold change /veh TMPRSS4 (11748680_a_at) / RFU FAM212B (11763350_a_at) / Fold change /veh FAM212B (11763350_a_at) / RFU PLEKHG5 (11743358_a_at) / Fold change /veh PLEKHG5 (11743358_a_at) / RFU ZSCAN30 (11745921_a_at) / Fold change /veh ZSCAN30 (11745921_a_at) / RFU CMKLR1 (11741424_a_at) / Fold change /veh CMKLR1 (11741424_a_at) / RFU LOC101060620 /// MAPK8IP1 (11723275_at) / Fold change /veh LOC101060620 /// MAPK8IP1 (11723275_at) / RFU SPTSSB (11747773_x_at) / Fold change /veh SPTSSB (11747773_x_at) / RFU PRSS12 (11739890_at) / Fold change /veh PRSS12 (11739890_at) / RFU BIN1 (11741810_x_at) / Fold change /veh BIN1 (11741810_x_at) / RFU WNT11 (11732464_a_at) / Fold change /veh WNT11 (11732464_a_at) / RFU C10orf10 (11716521_a_at) / Fold change /veh C10orf10 (11716521_a_at) / RFU C5orf56 (11738089_at) / Fold change /veh C5orf56 (11738089_at) / RFU CYB561 (11721691_x_at) / Fold change /veh CYB561 (11721691_x_at) / RFU ANKRD19P (11752326_a_at) / Fold change /veh ANKRD19P (11752326_a_at) / RFU OR2T12 /// OR2T33 /// OR2T8 (11738714_s_at) / Fold change /veh OR2T12 /// OR2T33 /// OR2T8 (11738714_s_at) / RFU VCAN (11748164_a_at) / Fold change /veh VCAN (11748164_a_at) / RFU JSRP1 (11732532_at) / Fold change /veh JSRP1 (11732532_at) / RFU KRTAP10-11 (11738290_x_at) / Fold change /veh KRTAP10-11 (11738290_x_at) / RFU MYO3A (11730013_a_at) / Fold change /veh MYO3A (11730013_a_at) / RFU EBF3 (11725865_a_at) / Fold change /veh EBF3 (11725865_a_at) / RFU CAMK2N1 (11719241_x_at) / Fold change /veh CAMK2N1 (11719241_x_at) / RFU C5orf56 (11738088_a_at) / Fold change /veh C5orf56 (11738088_a_at) / RFU OLFML3 (11715873_a_at) / Fold change /veh OLFML3 (11715873_a_at) / RFU LOC100653217 /// NTM (11731650_a_at) / Fold change /veh LOC100653217 /// NTM (11731650_a_at) / RFU MAPK11 (11762145_a_at) / Fold change /veh MAPK11 (11762145_a_at) / RFU FIZ1 (11724087_x_at) / Fold change /veh FIZ1 (11724087_x_at) / RFU OASL (11726364_x_at) / Fold change /veh OASL (11726364_x_at) / RFU SOX15 (11748057_x_at) / Fold change /veh SOX15 (11748057_x_at) / RFU CD79A (11719716_a_at) / Fold change /veh CD79A (11719716_a_at) / RFU HIST1H1D (11736915_at) / Fold change /veh HIST1H1D (11736915_at) / RFU CASKIN2 (11723855_a_at) / Fold change /veh CASKIN2 (11723855_a_at) / RFU LOC730098 (11760151_x_at) / Fold change /veh LOC730098 (11760151_x_at) / RFU OR4N2 (11742367_at) / Fold change /veh OR4N2 (11742367_at) / RFU PRRT2 (11749266_a_at) / Fold change /veh PRRT2 (11749266_a_at) / RFU SNX32 (11753110_a_at) / Fold change /veh SNX32 (11753110_a_at) / RFU CDHR5 (11726645_a_at) / Fold change /veh CDHR5 (11726645_a_at) / RFU RCAN1 (11760418_a_at) / Fold change /veh RCAN1 (11760418_a_at) / RFU FAM167A (11723789_a_at) / Fold change /veh FAM167A (11723789_a_at) / RFU FAM26E (11764081_at) / Fold change /veh FAM26E (11764081_at) / RFU ISYNA1 (11749810_s_at) / Fold change /veh ISYNA1 (11749810_s_at) / RFU ACY1 (11761880_at) / Fold change /veh ACY1 (11761880_at) / RFU 11764098_at / Fold change /veh 11764098_at / RFU SAMD14 (11745864_x_at) / Fold change /veh SAMD14 (11745864_x_at) / RFU NPB (11741838_a_at) / Fold change /veh NPB (11741838_a_at) / RFU TMPRSS6 (11731388_a_at) / Fold change /veh TMPRSS6 (11731388_a_at) / RFU KRTAP10-2 (11738614_at) / Fold change /veh KRTAP10-2 (11738614_at) / RFU ARHGAP8 /// PRR5-ARHGAP8 (11727945_x_at) / Fold change /veh ARHGAP8 /// PRR5-ARHGAP8 (11727945_x_at) / RFU KRTAP5-7 /// NADSYN1 (11734609_at) / Fold change /veh KRTAP5-7 /// NADSYN1 (11734609_at) / RFU RASL12 (11751679_a_at) / Fold change /veh RASL12 (11751679_a_at) / RFU CDKN2B (11736163_a_at) / Fold change /veh CDKN2B (11736163_a_at) / RFU PRF1 (11729649_at) / Fold change /veh PRF1 (11729649_at) / RFU, ZNF638 /// ZNF638-IT1 / Fold change vs veh, ZNF638 /// ZNF638-IT1 / RFU, PANK3 / Fold change vs veh, PANK3 / RFU, SH3YL1 / Fold change vs veh, SH3YL1 / RFU, ZEB2 / Fold change vs veh, ZEB2 / RFU, NRIP1 / Fold change vs veh, NRIP1 / RFU, PTTG1IP / Fold change vs veh, PTTG1IP / RFU, CAPN2 / Fold change vs veh, CAPN2 / RFU, MED14 / Fold change vs veh, MED14 / RFU, SNORA58 / Fold change vs veh, SNORA58 / RFU, C1orf63 / Fold change vs veh, C1orf63 / RFU, LRRFIP1 / Fold change vs veh, LRRFIP1 / RFU, NDUFAF7 / Fold change vs veh, NDUFAF7 / RFU, SLC12A2 / Fold change vs veh, SLC12A2 / RFU, IBTK / Fold change vs veh, IBTK / RFU, ESF1 / Fold change vs veh, ESF1 / Fold change vs veh, TMEM50B / RFU, TAOK1 / Fold change vs veh, TAOK1 / RFU, ACBD3 / Fold change vs veh, ACBD3 / RFU, TMA16 / Fold change vs veh, TMA16 / RFU, RWDD3 / Fold change vs veh, RWDD3 / RFU, BCAT1 / Fold change vs veh, BCAT1 / RFU, EDEM3 / Fold change vs veh, EDEM3 / RFU, TMEM33 / Fold change vs veh, TMEM33 / RFU, WDR75 / Fold change vs veh, WDR75 / RFU, AHCTF1 / Fold change vs veh, AHCTF1 / RFU, TFRC / Fold change vs veh, TFRC / RFU, ZDHHC17 / Fold change vs veh, ZDHHC17 / RFU, NOM1 / Fold change vs veh, NOM1 / RFU, ARL8B / Fold change vs veh, ARL8B / RFU, ZBTB11 / Fold change vs veh, ZBTB11 / RFU, TAMM41 / Fold change vs veh, TAMM41 / RFU, KIAA1704 /// LOC100996395 / Fold change vs veh, KIAA1704 /// LOC100996395 / RFU, ING1 / Fold change vs veh, ING1 / RFU, TRMT61B / Fold change vs veh, TRMT61B / RFU, FUBP3 / Fold change vs veh, FUBP3 / RFU, TP53 / Fold change vs veh, TP53 / RFU, TNKS2 / Fold change vs veh, TNKS2 / RFU, ZFP14 / Fold change vs veh, ZFP14 / RFU, ACTR2 / Fold change vs veh, ACTR2 / RFU, PPP3R1 / Fold change vs veh, PPP3R1 / RFU, PIK3R1 / Fold change vs veh, PIK3R1 / RFU, HNRNPA1 / Fold change vs veh, HNRNPA1 / RFU, RNF170 / Fold change vs veh, RNF170 / RFU, ZNF28 / Fold change vs veh, ZNF28 / RFU, RNGTT / Fold change vs veh, RNGTT / RFU, OGT / Fold change vs veh, OGT / RFU, BRD1 / Fold change vs veh, BRD1 / RFU, MARS / Fold change vs veh, MARS / RFU, ZNF655 / Fold change vs veh, ZNF655 / RFU, FAHD1 / Fold change vs veh, FAHD1 / RFU, BDP1 / Fold change vs veh, BDP1 / RFU, LRRCC1 / Fold change vs veh, LRRCC1 / RFU, ARID1A / Fold change vs veh, ARID1A / RFU, ZNF146 / Fold change vs veh, ZNF146 / RFU, ZNF330 / Fold change vs veh, ZNF330 / RFU, GPN3 / Fold change vs veh, GPN3 / RFU, C9orf123 / Fold change vs veh, C9orf123 / RFU, N4BP2L2 / Fold change vs veh, N4BP2L2 / RFU, ARFIP1 / Fold change vs veh, ARFIP1 / RFU, FAM179B / Fold change vs veh, FAM179B / RFU, BCL10 / Fold change vs veh, BCL10 / RFU, UHRF1BP1L / Fold change vs veh, UHRF1BP1L / RFU, BET1 / Fold change vs veh, BET1 / RFU, CNOT2 / Fold change vs veh, CNOT2 / RFU, ZNF268 / Fold change vs veh, ZNF268 / Fold change vs veh, ZNF507 / RFU, DGCR2 / Fold change vs veh, DGCR2 / RFU, WDSUB1 / Fold change vs veh, WDSUB1 / Fold change vs veh, HSP90B1 /// MIR3652 / RFU, ADSS / Fold change vs veh, ADSS / RFU, GK / Fold change vs veh, GK / RFU, ZNF148 / Fold change vs veh, ZNF148 / RFU, TAF9 / Fold change vs veh, TAF9 / RFU, SLC1A5 / Fold change vs veh, SLC1A5 / RFU, SLMO2 / Fold change vs veh, SLMO2 / RFU, ABCC4 / Fold change vs veh, ABCC4 / RFU, LOC101060439 /// RAP1B / Fold change vs veh, LOC101060439 /// RAP1B / RFU, RFX7 / Fold change vs veh, RFX7 / RFU, GTPBP10 / Fold change vs veh, GTPBP10 / RFU, CNEP1R1 / Fold change vs veh, CNEP1R1 / RFU, BIVM-ERCC5 /// ERCC5 / Fold change vs veh, BIVM-ERCC5 /// ERCC5 / RFU, ILF3 / Fold change vs veh, ILF3 / RFU 11762660_at / Fold change /veh 11762660_at / RFU VCAN (11757783_s_at) / Fold change /veh VCAN (11757783_s_at) / RFU DDX43 (11728927_at) / Fold change /veh DDX43 (11728927_at) / RFU KRT8 (11758188_x_at) / Fold change /veh KRT8 (11758188_x_at) / RFU NKD1 (11759106_at) / Fold change /veh NKD1 (11759106_at) / RFU SRD5A1 (11742802_a_at) / Fold change /veh SRD5A1 (11742802_a_at) / RFU TPSAB1 /// TPSB2 (11721975_s_at) / Fold change /veh TPSAB1 /// TPSB2 (11721975_s_at) / RFU GSTM3 (11746129_a_at) / Fold change /veh GSTM3 (11746129_a_at) / RFU IL23R (11737362_x_at) / Fold change /veh IL23R (11737362_x_at) / RFU TMEM51 (11727254_a_at) / Fold change /veh TMEM51 (11727254_a_at) / RFU PIWIL2 (11732686_x_at) / Fold change /veh PIWIL2 (11732686_x_at) / RFU ORM1 (11744905_x_at) / Fold change /veh ORM1 (11744905_x_at) / RFU CCDC152 (11743942_at) / Fold change /veh CCDC152 (11743942_at) / RFU ECM1 (11717891_a_at) / Fold change /veh ECM1 (11717891_a_at) / RFU IL23R (11748794_a_at) / Fold change /veh IL23R (11748794_a_at) / RFU TNFAIP8L3 (11732012_x_at) / Fold change /veh TNFAIP8L3 (11732012_x_at) / RFU MBOAT4 (11741988_at) / Fold change /veh MBOAT4 (11741988_at) / RFU 11764193_at / Fold change /veh 11764193_at / RFU TMEM53 (11763286_at) / Fold change /veh TMEM53 (11763286_at) / RFU MAGEB2 (11727129_at) / Fold change /veh MAGEB2 (11727129_at) / RFU TMEM200A (11744735_a_at) / Fold change /veh TMEM200A (11744735_a_at) / RFU CCDC152 (11751479_a_at) / Fold change /veh CCDC152 (11751479_a_at) / RFU FAM211A (11726209_a_at) / Fold change /veh FAM211A (11726209_a_at) / RFU RGS16 (11746705_a_at) / Fold change /veh RGS16 (11746705_a_at) / RFU VCAN (11755009_s_at) / Fold change /veh VCAN (11755009_s_at) / RFU RHOB (11743442_s_at) / Fold change /veh RHOB (11743442_s_at) / RFU RGS16 (11720943_a_at) / Fold change /veh RGS16 (11720943_a_at) / RFU RGS16 (11720944_at) / Fold change /veh RGS16 (11720944_at) / RFU, VPS4B / Fold change vs veh, VPS4B / RFU, CREB1 / Fold change vs veh, CREB1 / RFU, DNAJC13 / Fold change vs veh, DNAJC13 / RFU, GNAQ / Fold change vs veh, GNAQ / RFU, CDK5R1 / Fold change vs veh, CDK5R1 / RFU, ZRANB3 / Fold change vs veh, ZRANB3 / RFU, CUL4A / Fold change vs veh, CUL4A / RFU, CCNY / Fold change vs veh, CCNY / RFU, UFL1 / Fold change vs veh, UFL1 / RFU, COG3 / Fold change vs veh, COG3 / RFU, DIAPH2 / Fold change vs veh, DIAPH2 / RFU, SKA2 / Fold change vs veh, SKA2 / RFU, AFF3 / Fold change vs veh, AFF3 / RFU, LMF1 / Fold change vs veh, LMF1 / RFU, IPO11 / Fold change vs veh, IPO11 / RFU, DFFB / Fold change vs veh, DFFB / RFU, FOXP1 / Fold change vs veh, FOXP1 / RFU, CARD8 / Fold change vs veh, CARD8 / RFU, STRN3 / Fold change vs veh, STRN3 / RFU, ADK / Fold change vs veh, ADK / RFU, RASSF2 / Fold change vs veh, RASSF2 / RFU, WIPF1 / Fold change vs veh, WIPF1 / RFU, LARP1B / Fold change vs veh, LARP1B / RFU, RASA1 / Fold change vs veh, RASA1 / RFU, RB1 / Fold change vs veh, RB1 / RFU, PPFIA1 / Fold change vs veh, PPFIA1 / RFU, MAT2A / Fold change vs veh, MAT2A / RFU, CCT5 / Fold change vs veh, CCT5 / RFU, WDR92 / Fold change vs veh, WDR92 / RFU, CUX1 / Fold change vs veh, CUX1 / RFU, TTC7A / Fold change vs veh, TTC7A / RFU, TMEM135 / Fold change vs veh, TMEM135 / RFU, DEPTOR / Fold change vs veh, DEPTOR / RFU, CPM / Fold change vs veh, CPM / RFU, DNAJB6 / Fold change vs veh, DNAJB6 / RFU, CACNA2D3 / Fold change vs veh, CACNA2D3 / RFU, DTX4 / Fold change vs veh, DTX4 / RFU, TFCP2 / Fold change vs veh, TFCP2 / RFU, GMCL1 /// GMCL1P1 / Fold change vs veh, GMCL1 /// GMCL1P1 / RFU, AEBP2 / Fold change vs veh, AEBP2 / RFU, SNHG1 /// SNORD22 /// SNORD25 /// SNORD26 /// SNORD27 /// SNORD28 /// SNORD29 /// SNORD31 / Fold change vs veh, SNHG1 /// SNORD22 /// SNORD25 /// SNORD26 /// SNORD27 /// SNORD28 /// SNORD29 /// SNORD31 / Fold change (Aza/veh), C12orf56 (ProbeSet 11735607_a_at) / Fold change (ACY-1035/veh), C12orf56 (ProbeSet 11735607_a_at) / Fold change (Aza/veh), FGFR1OP (ProbeSet 11751329_s_at) / Fold change (ACY-1035/veh), FGFR1OP (ProbeSet 11751329_s_at) / Fold change (Aza/veh), VPS36 (ProbeSet 11739960_a_at) / Fold change (ACY-1035/veh), VPS36 (ProbeSet 11739960_a_at) / RFU SYPL1 (11715823_x_at) / Fold change /veh SYPL1 (11715823_x_at) / RFU IGFBP7 (11715501_s_at) / Fold change /veh IGFBP7 (11715501_s_at) / RFU REEP3 (11722064_at) / Fold change /veh REEP3 (11722064_at) / RFU IGLL1 (11728026_x_at) / Fold change /veh IGLL1 (11728026_x_at): dose or concentration left out as unconfirmed. As to conditions: ProbeSet 11740528_a_at; LIST D.

Consider `Nc1ncn([C@@H]2O[C@H](CO)[C@@H](O)[C@H]2O)c(=O)n1` [azacitidine], for which the “RFU, AFF3” value is listed as 349.86 RFU.
